Data as given in ChEMBL document CHEMBL3272323, “1-Halobenzyl-1H-indazole-3-carboxylic acids. A new class of antispermatogenic agents” (1976).
The source made the active and inactive calls. The calls are words filed in the database; no cut-off is given here.

Tests used:
Rattus norvegicus [1] = assay: Antispermatogenic activity in po dosed Long-Evans rat assessed as reduction of testes weight administered as single dose measured after 5 days; assay type: functional; conditions: Testis, 120 h, read-out: MED
Rattus norvegicus [2] = assay: Antispermatogenic activity in Long-Evans rat assessed as reduction of testes weight at a dose equimolecular to 400 mg/kg of 1-(4-chlorobenzyl)-1H-indazole-3-carboxylic acid administered orally as single dose measured after 5 days; assay type: functional, organism-based; set-up: dose 400 mg/kg; conditions: Testis

`O=C(OCC(O)CO)c1nn(Cc2ccc(Cl)cc2Cl)c2ccccc12` (stereo not drawn) gave a minimal effective dose (Rattus norvegicus [1]) of 69 mg/kg.

For `O=C(O)c1nn(Cc2cccc(C(F)(F)F)c2)c2ccccc12`, the Activity (Rattus norvegicus [2]) was “inactive”.

`O=C(O)Cc1nn(Cc2ccc(Cl)cc2)c2ccccc12` gave a minimal effective dose (Rattus norvegicus [1]) of 419 mg/kg.

`O=C(O)c1nn(Cc2ccc(Cl)c3ccccc23)c2ccccc12` was tested, and the Activity (Rattus norvegicus [2]) was “inactive”.

In the case of `CCOC(=O)c1nn(Cc2ccc(Cl)cc2)c2ccccc12`, the Activity (Rattus norvegicus [2]) is reported as “inactive”.

With `COC(=O)c1nn(Cc2ccc(Cl)cc2)c2ccccc12` the Activity (Rattus norvegicus [2]) was “inactive”.

With `Cc1nn(Cc2ccc(Cl)cc2)c2ccccc12` the Activity (Rattus norvegicus [2]) was “inactive”.

`COc1ccc2c(c1)c(C(=O)O)nn2Cc1ccc(Cl)cc1` was tested, and the Activity (Rattus norvegicus [2]) was “inactive”.

In the case of `Cc1ccc(Cn2nc(C(=O)O)c3ccccc32)c(C)c1` [XINIDAMINE], the minimal effective dose (Rattus norvegicus [1]) is reported as 101 mg/kg.

In the case of `O=C(O)c1nn(Cc2ccccc2Cl)c2ccccc12`, the minimal effective dose (Rattus norvegicus [1]) is reported as 200 mg/kg.

`OCc1nn(Cc2ccc(Cl)cc2)c2ccccc12` was tested, and the Activity (Rattus norvegicus [2]) was “inactive”.

`O=C(O)c1nn(Cc2ccc(I)cc2)c2ccccc12` was tested, and the minimal effective dose (Rattus norvegicus [1]) was 528 mg/kg.

With `Clc1ccc(Cn2nc(-c3nnn[nH]3)c3ccccc32)c(Cl)c1` the Activity (Rattus norvegicus [2]) was “inactive”.

`Cc1cc(Cl)ccc1Cn1nc(C(=O)O)c2ccccc21` [TOLNIDAMINE] gave a minimal effective dose (Rattus norvegicus [1]) of 52 mg/kg.

`O=C(OCC(O)CO)c1nn(Cc2ccc(Cl)cc2)c2ccccc12` (stereo not drawn) gave a minimal effective dose (Rattus norvegicus [1]) of 503 mg/kg.

`O=C(O)c1nn(Cc2ccc(Br)cc2)c2ccccc12` was tested, and the minimal effective dose (Rattus norvegicus [1]) was 231 mg/kg.

In the case of `Sc1nn(Cc2cccc(Cl)c2)c2ccccc12`, the Activity (Rattus norvegicus [2]) is reported as “inactive”.

`O=C(O)c1ccccc1NCc1ccc(Cl)cc1` was tested, and the Activity (Rattus norvegicus [2]) was “inactive”.

`O=C(OCCO)c1nn(Cc2ccc(Cl)cc2)c2ccccc12` was tested, and the minimal effective dose (Rattus norvegicus [1]) was 486 mg/kg.

With `Cc1cc(Cl)ccc1Cn1nc(-c2nnn[nH]2)c2ccccc21` the Activity (Rattus norvegicus [2]) was “inactive”.

`O=C(O)c1ccccc1NCc1cccc2ccccc12` was tested, and the Activity (Rattus norvegicus [2]) was “inactive”.

For `O=C(O)c1cn(Cc2ccc(Cl)cc2)c2ccccc12`, the Activity (Rattus norvegicus [2]) was “inactive”.

`O=C(O)c1nn(Cc2cc(Cl)c(Cl)cc2Cl)c2ccccc12` gave a minimal effective dose (Rattus norvegicus [1]) of 248 mg/kg.

In the case of `N#Cc1ccc(Cn2nc(C(=O)O)c3ccccc32)cc1`, the Activity (Rattus norvegicus [2]) is reported as “inactive”.

In the case of `Cc1ccc2c(c1)c(C(=O)O)nn2Cc1ccc(Cl)cc1`, the Activity (Rattus norvegicus [2]) is reported as “inactive”.

In the case of `O=C(O)c1cc2ccccc2n1Cc1ccc(Cl)cc1`, the Activity (Rattus norvegicus [2]) is reported as “inactive”.

Work on `O=C(OCC(O)CO)c1nn(Cc2cc(Cl)c(Cl)cc2Cl)c2ccccc12` (stereo not drawn) yielded a minimal effective dose (Rattus norvegicus [1]) of 300 mg/kg.

With `CS(=O)(=O)c1ccc(Cn2nc(C(=O)O)c3ccccc32)cc1` the Activity (Rattus norvegicus [2]) was “inactive”.

In the case of `O=C(O)c1nn(S(=O)(=O)c2ccc(Cl)cc2)c2ccccc12`, the Activity (Rattus norvegicus [2]) is reported as “inactive”.

With `O=C(Cn1nc(C(=O)O)c2ccccc21)c1ccc(Cl)cc1` the Activity (Rattus norvegicus [2]) was “inactive”.

`O=C(O)c1nn(Cc2ccc(Br)cc2Br)c2ccccc12` was tested, and the minimal effective dose (Rattus norvegicus [1]) was 76.5 mg/kg.

`O=C(O)c1nn(Cc2c(Cl)cccc2Cl)c2ccccc12` was tested, and the Activity (Rattus norvegicus [2]) was “inactive”.

In the case of `O=C(O)c1nn(Cc2ccc(Cl)cc2Cl)c2ccccc12` [LONIDAMINE], the minimal effective dose (Rattus norvegicus [1]) is reported as 56 mg/kg.

With `Cc1cccc(Cn2nc(C(=O)O)c3ccccc32)c1` the Activity (Rattus norvegicus [2]) was “inactive”.

`Cc1ccc(Cn2nc(C(=O)O)c3ccccc32)cc1` was tested, and the Activity (Rattus norvegicus [2]) was “inactive”.

With `N#Cc1nn(Cc2ccc(Cl)cc2)c2ccccc12` the Activity (Rattus norvegicus [2]) was “inactive”.

Compound `O=C(O)c1nn(Cc2ccc(Cl)cc2)c2ccccc12` has a minimal effective dose (Rattus norvegicus [1]) of 400 mg/kg.

With `NC(=O)c1nn(Cc2ccc(Cl)cc2)c2ccccc12` the minimal effective dose (Rattus norvegicus [1]) was 399 mg/kg.

In the case of `O=C(O)c1nn(Cc2ccc(Cl)c(Cl)c2)c2ccccc12`, the minimal effective dose (Rattus norvegicus [1]) is reported as 448 mg/kg.

`Cc1ccccc1Cn1nc(C(=O)O)c2ccccc21` showed a minimal effective dose (Rattus norvegicus [1]) of 186 mg/kg.

With `Clc1ccc(Cn2nc(-c3nnn[nH]3)c3ccccc32)cc1` the Activity (Rattus norvegicus [2]) was “inactive”.

`O=C(c1ccccc1)c1cccc(Cn2nc(C(=O)O)c3ccccc32)c1` was tested, and the Activity (Rattus norvegicus [2]) was “inactive”.

With `O=C(O)c1nn(Cc2ccc(Cl)cc2)c2ccc(O)cc12` the Activity (Rattus norvegicus [2]) was “inactive”.

For `CC(=O)c1nn(Cc2ccc(Cl)cc2)c2ccccc12`, the Activity (Rattus norvegicus [2]) was “inactive”.

In the case of `O=C(O)c1nn(Cc2ccc(F)cc2)c2ccccc12`, the minimal effective dose (Rattus norvegicus [1]) is reported as 377 mg/kg.

For `O=C(OC(CO)CO)c1nn(Cc2ccc(Cl)cc2)c2ccccc12`, the minimal effective dose (Rattus norvegicus [1]) was 503 mg/kg.

For `O=C(O)CCc1nn(Cc2ccc(Cl)cc2)c2ccccc12`, the Activity (Rattus norvegicus [2]) was “inactive”.

`O=C(O)c1nn(Cc2cccc(Cl)c2)c2ccccc12` showed a minimal effective dose (Rattus norvegicus [1]) of 400 mg/kg.

For `Nc1nn(Cc2ccc(Cl)cc2)c2ccccc12`, the Activity (Rattus norvegicus [2]) was “inactive”.

`O=C(NCCCCCCCCNC(=O)C(Cl)Cl)C(Cl)Cl` was tested, and the Activity (Rattus norvegicus [2]) was “inactive”.

In the case of `Cc1c(C(=O)O)c2ccccc2n1Cc1ccc(Cl)cc1`, the Activity (Rattus norvegicus [2]) is reported as “inactive”.

`Clc1ccc(Cn2ncc3ccccc32)cc1` was tested, and the Activity (Rattus norvegicus [2]) was “inactive”.

In the case of `O=C(O)c1nn(C(=O)c2ccc(Cl)cc2)c2ccccc12`, the Activity (Rattus norvegicus [2]) is reported as “inactive”.

In the case of `O=C(O)c1nn(Cc2ccc(S(=O)(=O)c3ccccc3)cc2)c2ccccc12`, the Activity (Rattus norvegicus [2]) is reported as “inactive”.

For `Clc1ccc(CCn2nc(-c3nnn[nH]3)c3ccccc32)cc1`, the Activity (Rattus norvegicus [2]) was “inactive”.

For `O=C(O)c1nn(-c2ccc(Cl)cc2)c2ccccc12`, the Activity (Rattus norvegicus [2]) was “inactive”.

In the case of `O=C(O)c1nn(Cc2ccc(Cl)cc2)c2ccc(Cl)cc12`, the Activity (Rattus norvegicus [2]) is reported as “inactive”.

For `O=C(OCC(O)CO)c1nn(Cc2ccccc2Cl)c2ccccc12` (stereo not drawn), the minimal effective dose (Rattus norvegicus [1]) was 503 mg/kg.
